For assay [1], the target named is T1, Dual specificity mitogen-activated protein kinase kinase; MEK1/2 (Homo sapiens) (UniProt P36507+Q02750). The note with it: 10 uM.
Description: Inhibition of MEK1/2 in human PANC1 cells assessed as decrease in phosphorylated levels of MEK at S217/221 at 10 uM incubated for 24 hrs by Western blotting analysis
Assay [2] relates to PANC-1. The assay can be described thus: Antiproliferative activity against human PANC1 cells incubated for 72 hrs by MTT assay. The assay is classed as functional, cell-based. The note with it: PANC-1, 72 h. A general note: Tetrazolium dyes change colour on reduction, which living cells bring about.
The subject of assay [3] is HepG2. In words: Antiproliferative activity against human HepG2 cells incubated for 72 hrs by MTT assay. The assay is classed as functional, cell-based. The conditions noted are these: HepG2, 72 h.
Assay [4] has as its system A549. In words: Antiproliferative activity against human A549 cells incubated for 72 hrs by MTT assay. The note with it: A549, 72 h. The assay is classed as functional, cell-based.
Assay [5] deals with DU-145. The assay can be described thus: Antiproliferative activity against human DU145 cells incubated for 72 hrs by MTT assay. The assay is classed as functional, cell-based. The conditions noted are these: DU-145, 72 h.
Assay [6] can be described thus: Antiproliferative activity against human MCF cells incubated for 72 hrs by MTT assay. The assay is classed as functional, cell-based.
In assay [7] the test system is HCT-116. In words: Antiproliferative activity against human HCT116 cells incubated for 72 hrs by MTT assay. The assay is classed as functional, cell-based. The note with it: HCT-116, 72 h.
For assay [8], the target named is T1, Dual specificity mitogen-activated protein kinase kinase; MEK1/2 (Homo sapiens). The assay can be described thus: Inhibition of MEK1/2 in human PANC1 cells assessed as decrease in phosphorylated levels of ERK(T202/Y204) in nuclear fraction at 5 uM incubated for 24 hrs by Western blotting analysis. The assay is classed as cell-based.
In assay [9] the test system is PANC-1. In words: Induction of apoptosis in human PANC1 cells assessed as increase in cleaved PARP level incubated for 24 hrs by Western blot analysis. The assay is classed as functional, cell-based. In general terms: In western blotting, separated proteins are transferred to a membrane and probed.
In assay [10] the test system is PANC-1. The assay can be described thus: Inhibition of colony formation in human PANC1 cells incubated for 14 days by crystal violet staining based assay. The assay is classed as functional, cell-based.
Assay [11] addresses T1, Dual specificity mitogen-activated protein kinase kinase; MEK1/2 (Homo sapiens). In words: Inhibition of MEK1/2 in human PANC1 cells assessed as decrease in phosphorylated levels of ERK(T202/Y204) at 5 uM incubated for 24 hrs by Western blotting analysis. The assay is classed as cell-based.
Assay [12] concerns PANC-1. In words: Induction of apoptosis in human PANC1 cells assessed as increase in cleaved caspase-3 level incubated for 24 hrs by Western blot analysis. The assay is classed as functional, cell-based.
Assay [13] concerns the target T1, Dual specificity mitogen-activated protein kinase kinase; MEK1/2 (Homo sapiens). In words: Inhibition of MEK1/2 in human PANC1 cells assessed as decrease in phosphorylated levels of MEK at S217/221 at 5 uM incubated for 24 hrs by Western blotting analysis. The assay is classed as cell-based.

pIC50: −log10 of the molar value. Activity calls are given as the source filed them. No cut-off for these calls is given here. Where only a bound is given, the exact number is not on record here.

T1 sequence (P36507 whole entry, looked up): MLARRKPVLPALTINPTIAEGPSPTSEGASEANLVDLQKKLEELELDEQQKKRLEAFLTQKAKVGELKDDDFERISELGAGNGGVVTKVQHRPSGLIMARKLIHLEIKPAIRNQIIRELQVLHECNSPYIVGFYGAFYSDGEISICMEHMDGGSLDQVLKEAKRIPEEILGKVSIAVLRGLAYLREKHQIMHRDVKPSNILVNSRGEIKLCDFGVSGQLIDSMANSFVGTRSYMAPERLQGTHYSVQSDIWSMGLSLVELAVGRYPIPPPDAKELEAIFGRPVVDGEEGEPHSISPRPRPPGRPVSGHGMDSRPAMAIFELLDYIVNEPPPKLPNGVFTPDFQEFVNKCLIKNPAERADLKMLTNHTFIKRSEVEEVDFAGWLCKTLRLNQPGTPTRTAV
T1 sequence (Q02750 whole entry, looked up): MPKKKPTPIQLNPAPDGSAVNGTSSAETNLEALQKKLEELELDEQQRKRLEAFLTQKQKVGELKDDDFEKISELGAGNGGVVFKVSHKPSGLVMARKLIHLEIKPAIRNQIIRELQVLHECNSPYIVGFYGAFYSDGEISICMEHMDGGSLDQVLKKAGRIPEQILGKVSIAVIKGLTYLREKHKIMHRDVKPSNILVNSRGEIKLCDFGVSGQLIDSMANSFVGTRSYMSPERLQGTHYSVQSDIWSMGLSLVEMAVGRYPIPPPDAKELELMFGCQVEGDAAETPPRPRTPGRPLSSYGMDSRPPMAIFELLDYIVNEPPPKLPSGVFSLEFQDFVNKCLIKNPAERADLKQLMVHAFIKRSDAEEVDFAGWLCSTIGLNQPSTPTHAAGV

For `COc1cccc(-c2cc(=O)c3ccccc3o2)c1N`, the inhibition result in assay [1] was “Active”.
By pIC50 is commonly meant the IC50 on a negative log10 scale, so that one unit is a factor of ten. Read a low pIC50 as a large IC50. `COc1cc(C)c(Cl)c(O)c1C(=O)c1c(C=O)c(O)cc(O)c1CC=C(C)C`: the pIC50 in assay [2] was 4.85; in [3], 4.43; in assay [4], 4.85; in assay [5], 4.68; in [6], 4.96; in [7], 5.00.
Turning to `COc1c(Cl)c(C)c(Cl)c(O)c1C(=O)c1c(C=O)c(O)cc(O)c1CC=C(C)C` [PESTALONE], the negative logarithm of the IC50 (pIC50) in assay [2] is 4.85.
On to `CC(C)=CCc1c(O)cc(O)c(C=O)c1C(=O)c1c(O)cc(C)c(Br)c1O`, for which the pIC50 in [2] was 5.12. Moreover, the inhibition entry in assay [8], in assay [11] and in assay [13] was “Active” in each case. Besides, the Activity result in [9] and in assay [12] was “Dose-dependent effect” in each case. Further, the inhibition result in [10] is “Dose-dependent effect”.
With `CC(C)=CCc1c(O)cc(O)c(C=O)c1C(=O)c1c(O)cc(C)c(Cl)c1O`, the pIC50 is 5.14 in assay [2]; 4.64 in assay [3]; 5.11 in assay [4]; 4.85 in assay [5]; 5.12 in assay [6]; 5.26 in assay [7]. Besides, the inhibition result in [8], in assay [11] and in [13] was “Active” each time. Further, the Activity entry in assay [9] and in assay [12] was “Dose-dependent effect” in each case. The inhibition entry in [10] is “Dose-dependent effect”.
In turn, `COc1cc(C)c(Br)c(O)c1C(=O)c1c(C=O)c(O)cc(O)c1CC=C(C)C` gave a negative-log IC50 (pIC50) in assay [2] of 4.59.
Molecule `CC(C)=CCc1c(O)cc(O)c2c1C(=O)c1c(O)c(Cl)c(C)c(Cl)c1OC2` [PESTALACHLORIDE B] had a pIC50 in assay [2] below 4.30.
Take `O=c1[nH]cc(F)c(=O)[nH]1` [FLUOROURACIL]: the negative logarithm of the IC50 (pIC50) in [2] was 4.82; in [3], 5.60; in assay [5] it was 5.60; in [6] it was 4.96.

These data come from ChEMBL document CHEMBL4321870, “Benzophenone Compounds, from a Marine-Derived Strain of the Fungus Pestalotiopsis neglecta, Inhibit Proliferation of Pancreatic Cancer Cells by Targeting the MEK/ERK Pathway” (J Nat Prod, 2019).
